Test results: patent publication EP4417602A1, “SUBSTITUTED PYRAZOLE CARBOXAMIDES, SALTS THEREOF AND THEIR USE AS HERBICIDALLY ACTIVE SUBSTANCES” (Bayer AG, priority 2023, dated 2024)

Tests used:
ECHCG [1] = assay: A. Herbicidal pre-emergence action on harmful plants (Tables A); type: in vivo, Echinochloa crus-galli; conditions: visual grading after ca. 3 weeks vs untreated controls, 100% = plants have died off, 0% = as control plants
Summary of the method: (§1)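 Values are visual percent damage relative to untreated controls, scored ca. 3 weeks after the compound was sprayed on the covering soil of sown pots (sandy loam) at rates up to 1280 g/ha, formulated as WP or EC with 0.5% additive.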

LOLRI = assay: as above; type: in vivo, Lolium rigidum; conditions: visual grading after ca. 3 weeks vs untreated controls, 100% = plants have died off, 0% = as control plants
Summary of the method: as §1

MATIN [2] = assay: as above; type: in vivo, Matricaria inodora; conditions: visual grading after ca. 3 weeks vs untreated controls, 100% = plants have died off, 0% = as control plants
Summary of the method: as §1

SETVI [3] = assay: as above; type: in vivo, Setaria viridis; conditions: visual grading after ca. 3 weeks vs untreated controls, 100% = plants have died off, 0% = as control plants
Summary of the method: as §1

STEME [4] = assay: as above; type: in vivo, Stellaria media; conditions: visual grading after ca. 3 weeks vs untreated controls, 100% = plants have died off, 0% = as control plants
Summary of the method: as §1

POAAN [5] = assay: as above; type: in vivo, Poa annua
Summary of the method: as §1

AMARE = assay: as above; type: in vivo, Amaranthus retroflexus
Summary of the method: as §1

ALOMY = assay: as above; type: in vivo, Alopecurus myosuroides
Summary of the method: as §1

VERPE [6] = assay: as above; type: in vivo, Veronica persica; conditions: application rate 1280 g/ha; Table A11
Excerpt: Seeds of mono- and dicotyledonous weed plants were sown in plastic pots (double sowings with one species of mono- and one species of dicotyledonous weed plants per pot), in sandy loam, and covered with soil. The compounds according to the invention, formulated in the form of wettable powders (WP) or as emulsifiable concentrates (EC), were applied to the surface of the covering soil as aqueous suspension or emulsion, with the addition of 0.5% of an additive, at an application rate of 6001 of water per hectare (converted). Following treatment, the pots were placed in a greenhouse and kept under optimum growth conditions for the test plants. The visual grading of the damage to the test plants was carried out after ca. 3 weeks in comparison to untreated controls (herbicidal effect in percent (%): 100% effect = plants have died off, 0% effect = as control plants). Tables A1 to A12, below, show the effects of selected compounds of the general formula (I) according to table 1 on various harmful plants and an application rate corresponding to 1280 g/ha or below obtained by the experimental procedure mentioned above. Table A1: pre-emergence activity at 1280g/ha against ABUTH in %

DIGSA [7] = assay: as above; type: in vivo, Digitaria sanguinalis
Summary of the method: as §1

ABUTH = assay: B. Herbicidal post-emergence action on harmful plants (Tables B); type: in vivo, Abutilon theophrasti
Summary of the method: (§2)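 Greenhouse weeds grown in sandy loam were sprayed post-emergence at the one-leaf stage, 2-3 weeks after sowing. Compounds were applied as WP or EC in water with 0.5% additive at 600 L/ha, at 1280 g/ha or below. Visual damage was rated after about 3 weeks versus untreated plants (0-100%).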

ECHCG [8] = assay: as above; type: in vivo, Echinochloa crus-galli
Summary of the method: as §2

MATIN [9] = assay: as above; type: in vivo, Matricaria inodora
Summary of the method: as §2

SETVI [10] = assay: as above; type: in vivo, Setaria viridis; conditions: application rate 1280 g/ha; Table B5
Experimental: (§3) Seeds of mono- and dicotyledonous weed plants were placed in plastic pots in sandy loam soil (doubly sown with in each case one species of mono- or dicotyledonous weed plants per pot), covered with soil and cultivated in a greenhouse under controlled growth conditions. 2 to 3 weeks after sowing, the test plants were treated at the one-leaf stage. The compounds of the invention, formulated in the form of wettable powders (WP) or as emulsion concentrates (EC), were applied onto the green parts of the plants as aqueous suspension or emulsion with addition of 0.5% additive at a water application rate of 600 liters per hectare (converted). After the test plants had been kept in the greenhouse under optimum growth conditions for about 3 weeks, the activity of the preparations was rated visually in comparison to untreated controls. For example, 100% activity = the plants have died, 0% activity = like control plants. Tables B1 to B12, below, show the effects of selected compounds of the general formula (I) according to table 1 on various harmful plants and an application rate corresponding to 1280 g/ha or below obtained by the experimental procedure mentioned above. Table B1a: post-emergence activity at 1280g/ha against ABUTH in %

STEME [11] = assay: as above; type: in vivo, Stellaria media; conditions: application rate 1280 g/ha; Table B6
Experimental: as §3

POAAN [12] = assay: as above; type: in vivo, Poa annua
Summary of the method: as §2

VERPE [13] = assay: as above; type: in vivo, Veronica persica
Summary of the method: as §2

DIGSA [14] = assay: as above; type: in vivo, Digitaria sanguinalis; conditions: application rate 1280 g/ha; Table B12a
Summary of the method: as §2

[15] = application rate 1280 g/ha, visual grading after ca. 3 weeks vs untreated controls, 100% = plants have died off, 0% = as control plants

COCc1nn(C)cc1C(=O)N1CCCC1Cc1c(F)cccc1F (single isomer, unassigned) [Example I-082]
pre-emergence activity against ECHCG (ECHCG [1]; application rate 80 g/ha): 90%
pre-emergence activity against ECHCG (ECHCG [1]; application rate 320 g/ha): 90%
pre-emergence activity against ECHCG (ECHCG [1]; application rate 1280 g/ha): 100%
pre-emergence activity against LOLRI (LOLRI; application rate 80 g/ha): 90%
pre-emergence activity against LOLRI (LOLRI; application rate 320 g/ha): 100%
pre-emergence activity against LOLRI (LOLRI; application rate 1280 g/ha): 100%
pre-emergence activity against MATIN (MATIN [2]; application rate 80 g/ha): 90%
pre-emergence activity against MATIN (MATIN [2]; application rate 320 g/ha): 90%
pre-emergence activity against MATIN (MATIN [2]; application rate 1280 g/ha): 90%
pre-emergence activity against SETVI (SETVI [3]; application rate 80 g/ha): 90%
pre-emergence activity against SETVI (SETVI [3]; application rate 320 g/ha): 100%
pre-emergence activity against SETVI (SETVI [3]; application rate 1280 g/ha): 100%
pre-emergence activity against STEME (STEME [4]; application rate 80 g/ha): 90%
pre-emergence activity against STEME (STEME [4]; application rate 320 g/ha): 90%
pre-emergence activity against STEME (STEME [4]; application rate 1280 g/ha): 90%
pre-emergence activity against POAAN (POAAN [5]; application rate 80 g/ha, Table A7c): 100%
pre-emergence activity against POAAN (POAAN [5]; application rate 320 g/ha, Table A7b): 100%
pre-emergence activity against POAAN (POAAN [5]; [15]): 100%
pre-emergence activity against AMARE (AMARE; application rate 320 g/ha, Table A8b): 90%
pre-emergence activity against AMARE (AMARE; [15]): 90%
pre-emergence activity against ALOMY (ALOMY; application rate 320 g/ha, Table A9b): 90%
pre-emergence activity against ALOMY (ALOMY; application rate 1280 g/ha, Table A9a): 90%
pre-emergence activity against VERPE (VERPE [6]): 90%
pre-emergence activity against DIGSA (DIGSA [7]; application rate 80 g/ha, Table A12c): 100%
pre-emergence activity against DIGSA (DIGSA [7]; application rate 320 g/ha, Table A12b): 100%
pre-emergence activity against DIGSA (DIGSA [7]; application rate 1280 g/ha, Table A12a): 100%
post-emergence activity against ABUTH (ABUTH; application rate 320 g/ha, treated at the one-leaf stage, rated visually after about 3 weeks vs untreated controls, 100% = the plants have died, 0% = like control plants): 90%
post-emergence activity against ABUTH (ABUTH; application rate 1280 g/ha, Table B1a): 90%
post-emergence activity against ECHCG (ECHCG [8]; application rate 320 g/ha, Table B2b): 90%
post-emergence activity against ECHCG (ECHCG [8]; application rate 1280 g/ha, Table B2a): 90%
post-emergence activity against MATIN (MATIN [9]; application rate 320 g/ha, Table B4b): 90%
post-emergence activity against MATIN (MATIN [9]; application rate 1280 g/ha, Table B4a): 90%
post-emergence activity against SETVI (SETVI [10]): 90%
post-emergence activity against STEME (STEME [11]): 90%
post-emergence activity against POAAN (POAAN [12]; application rate 80 g/ha, Table B7c): 90%
post-emergence activity against POAAN (POAAN [12]; application rate 320 g/ha, Table B7b): 90%
post-emergence activity against POAAN (POAAN [12]; application rate 1280 g/ha, Table B7a): 100%
post-emergence activity against VERPE (VERPE [13]; application rate 320 g/ha, Table B11b): 90%
post-emergence activity against VERPE (VERPE [13]; application rate 1280 g/ha, Table B11a): 90%
post-emergence activity against DIGSA (DIGSA [14]): 90%
